Numbers after ± are expanded uncertainties.
Assay: xn = mol fraction of the nth substance listed
Conditions: 298.15 K, Liquid

CCCCCCCCC [nonane] + C1CCCCC1
mass density (18340 kPa, x2 = 0.7052): 760.7 ± 1.2 kg/m3
mass density (18340 kPa, x2 = 0.7993): 768 ± 1.2 kg/m3
mass density (18340 kPa, x2 = 0.9039): 777.3 ± 1.1 kg/m3
mass density (20370 kPa, x2 = 0): 728.6 ± 1.5 kg/m3
mass density (20370 kPa, x2 = 0.09303): 731.6 ± 1.5 kg/m3
mass density (20370 kPa, x2 = 0.2009): 735.7 ± 1.5 kg/m3
mass density (20370 kPa, x2 = 0.3051): 740 ± 1.4 kg/m3
mass density (20370 kPa, x2 = 0.417): 745.1 ± 1.4 kg/m3
mass density (20370 kPa, x2 = 0.512): 749.8 ± 1.4 kg/m3
mass density (20370 kPa, x2 = 0.5996): 755.2 ± 1.3 kg/m3
mass density (20370 kPa, x2 = 0.7052): 762.1 ± 1.3 kg/m3
mass density (20370 kPa, x2 = 0.7993): 769.4 ± 1.2 kg/m3
mass density (20370 kPa, x2 = 0.9039): 778.8 ± 1.2 kg/m3
mass density (22390 kPa, x2 = 0): 730 ± 1.6 kg/m3
mass density (22390 kPa, x2 = 0.09303): 732.9 ± 1.6 kg/m3
mass density (22390 kPa, x2 = 0.2009): 737.1 ± 1.5 kg/m3
mass density (22390 kPa, x2 = 0.3051): 741.4 ± 1.5 kg/m3
mass density (22390 kPa, x2 = 0.417): 746.5 ± 1.5 kg/m3
mass density (22390 kPa, x2 = 0.512): 751.3 ± 1.4 kg/m3
mass density (22390 kPa, x2 = 0.5996): 756.6 ± 1.4 kg/m3
mass density (22390 kPa, x2 = 0.7052): 763.5 ± 1.3 kg/m3
mass density (22390 kPa, x2 = 0.7993): 770.8 ± 1.3 kg/m3
mass density (22390 kPa, x2 = 0.9039): 780.2 ± 1.3 kg/m3
mass density (24420 kPa, x2 = 0): 731.3 ± 1.7 kg/m3
mass density (24420 kPa, x2 = 0.09303): 734.2 ± 1.6 kg/m3
mass density (24420 kPa, x2 = 0.2009): 738.4 ± 1.6 kg/m3
mass density (24420 kPa, x2 = 0.3051): 742.7 ± 1.6 kg/m3
mass density (24420 kPa, x2 = 0.417): 747.9 ± 1.5 kg/m3
mass density (24420 kPa, x2 = 0.512): 752.6 ± 1.5 kg/m3
mass density (24420 kPa, x2 = 0.5996): 758 ± 1.5 kg/m3
mass density (24420 kPa, x2 = 0.7052): 764.9 ± 1.4 kg/m3
mass density (24420 kPa, x2 = 0.7993): 772.2 ± 1.4 kg/m3
mass density (24420 kPa, x2 = 0.9039): 781.6 ± 1.3 kg/m3
mass density (26450 kPa, x2 = 0): 732.6 ± 1.7 kg/m3
mass density (26450 kPa, x2 = 0.09303): 735.6 ± 1.7 kg/m3
mass density (26450 kPa, x2 = 0.2009): 739.8 ± 1.7 kg/m3
mass density (26450 kPa, x2 = 0.3051): 744.1 ± 1.6 kg/m3
mass density (26450 kPa, x2 = 0.417): 749.2 ± 1.6 kg/m3
mass density (26450 kPa, x2 = 0.512): 753.9 ± 1.6 kg/m3
mass density (26450 kPa, x2 = 0.5996): 759.3 ± 1.5 kg/m3
mass density (26450 kPa, x2 = 0.7052): 766.3 ± 1.5 kg/m3
mass density (26450 kPa, x2 = 0.7993): 773.5 ± 1.4 kg/m3
mass density (26450 kPa, x2 = 0.9039): 783 ± 1.4 kg/m3
mass density (28470 kPa, x2 = 0): 733.9 ± 1.8 kg/m3
mass density (28470 kPa, x2 = 0.09303): 736.9 ± 1.8 kg/m3
mass density (28470 kPa, x2 = 0.2009): 741.1 ± 1.8 kg/m3
mass density (28470 kPa, x2 = 0.3051): 745.3 ± 1.7 kg/m3
mass density (28470 kPa, x2 = 0.417): 750.5 ± 1.7 kg/m3
mass density (28470 kPa, x2 = 0.512): 755.2 ± 1.6 kg/m3
mass density (28470 kPa, x2 = 0.5996): 760.6 ± 1.6 kg/m3
mass density (28470 kPa, x2 = 0.7052): 767.6 ± 1.5 kg/m3
mass density (28470 kPa, x2 = 0.7993): 774.9 ± 1.5 kg/m3
mass density (28470 kPa, x2 = 0.9039): 784.3 ± 1.4 kg/m3
mass density (29490 kPa, x2 = 0): 734.5 ± 1.9 kg/m3
mass density (29490 kPa, x2 = 0.09303): 737.5 ± 1.8 kg/m3
mass density (29490 kPa, x2 = 0.2009): 741.7 ± 1.8 kg/m3
mass density (29490 kPa, x2 = 0.3051): 746 ± 1.8 kg/m3
mass density (29490 kPa, x2 = 0.417): 751.1 ± 1.7 kg/m3
mass density (29490 kPa, x2 = 0.512): 755.8 ± 1.7 kg/m3
mass density (29490 kPa, x2 = 0.5996): 761.3 ± 1.6 kg/m3
mass density (29490 kPa, x2 = 0.7052): 768.2 ± 1.6 kg/m3
mass density (29490 kPa, x2 = 0.7993): 775.5 ± 1.5 kg/m3
mass density (29490 kPa, x2 = 0.9039): 785 ± 1.5 kg/m3
mass density (30500 kPa, x2 = 0): 735.1 ± 1.9 kg/m3
mass density (30500 kPa, x2 = 0.09303): 738.1 ± 1.9 kg/m3
mass density (30500 kPa, x2 = 0.2009): 742.3 ± 1.8 kg/m3
mass density (30500 kPa, x2 = 0.3051): 746.6 ± 1.8 kg/m3
mass density (30500 kPa, x2 = 0.417): 751.8 ± 1.7 kg/m3
mass density (30500 kPa, x2 = 0.512): 756.5 ± 1.7 kg/m3
mass density (30500 kPa, x2 = 0.5996): 761.9 ± 1.7 kg/m3
mass density (30500 kPa, x2 = 0.7052): 768.9 ± 1.6 kg/m3
mass density (30500 kPa, x2 = 0.7993): 776.2 ± 1.6 kg/m3
mass density (30500 kPa, x2 = 0.9039): 785.7 ± 1.5 kg/m3
mass density (32530 kPa, x2 = 0): 736.4 ± 2 kg/m3
mass density (32530 kPa, x2 = 0.09303): 739.4 ± 1.9 kg/m3
mass density (32530 kPa, x2 = 0.2009): 743.6 ± 1.9 kg/m3
mass density (32530 kPa, x2 = 0.3051): 747.9 ± 1.9 kg/m3
mass density (32530 kPa, x2 = 0.417): 753 ± 1.8 kg/m3
mass density (32530 kPa, x2 = 0.512): 757.7 ± 1.8 kg/m3
mass density (32530 kPa, x2 = 0.5996): 763.2 ± 1.7 kg/m3
mass density (32530 kPa, x2 = 0.7052): 770.2 ± 1.7 kg/m3
mass density (32530 kPa, x2 = 0.7993): 777.5 ± 1.6 kg/m3
mass density (32530 kPa, x2 = 0.9039): 787 ± 1.5 kg/m3
mass density (34550 kPa, x2 = 0): 737.6 ± 2 kg/m3
mass density (34550 kPa, x2 = 0.09303): 740.7 ± 2 kg/m3
mass density (34550 kPa, x2 = 0.2009): 744.8 ± 2 kg/m3
mass density (34550 kPa, x2 = 0.3051): 749.1 ± 1.9 kg/m3
mass density (34550 kPa, x2 = 0.417): 754.3 ± 1.9 kg/m3
mass density (34550 kPa, x2 = 0.512): 759 ± 1.8 kg/m3
mass density (34550 kPa, x2 = 0.5996): 764.5 ± 1.8 kg/m3
mass density (34550 kPa, x2 = 0.7052): 771.5 ± 1.7 kg/m3
mass density (34550 kPa, x2 = 0.7993): 778.7 ± 1.7 kg/m3
mass density (34550 kPa, x2 = 0.9039): 788.2 ± 1.6 kg/m3
mass density (36580 kPa, x2 = 0): 738.8 ± 2.1 kg/m3
mass density (36580 kPa, x2 = 0.09303): 741.8 ± 2.1 kg/m3
mass density (36580 kPa, x2 = 0.2009): 746 ± 2 kg/m3
mass density (36580 kPa, x2 = 0.3051): 750.3 ± 2 kg/m3
mass density (36580 kPa, x2 = 0.417): 755.5 ± 1.9 kg/m3
mass density (36580 kPa, x2 = 0.512): 760.2 ± 1.9 kg/m3
mass density (36580 kPa, x2 = 0.5996): 765.7 ± 1.9 kg/m3
mass density (36580 kPa, x2 = 0.7052): 772.7 ± 1.8 kg/m3
mass density (36580 kPa, x2 = 0.7993): 780 ± 1.7 kg/m3
mass density (36580 kPa, x2 = 0.9039): 789.5 ± 1.7 kg/m3
mass density (38600 kPa, x2 = 0): 740 ± 2.2 kg/m3
mass density (38600 kPa, x2 = 0.09303): 743 ± 2.2 kg/m3
mass density (38600 kPa, x2 = 0.2009): 747.2 ± 2.1 kg/m3
mass density (38600 kPa, x2 = 0.3051): 751.5 ± 2.1 kg/m3
mass density (38600 kPa, x2 = 0.417): 756.7 ± 2 kg/m3
mass density (38600 kPa, x2 = 0.512): 761.4 ± 2 kg/m3
mass density (38600 kPa, x2 = 0.5996): 766.9 ± 1.9 kg/m3
mass density (38600 kPa, x2 = 0.7052): 773.9 ± 1.9 kg/m3
mass density (38600 kPa, x2 = 0.7993): 781.4 ± 1.8 kg/m3
mass density (38600 kPa, x2 = 0.9039): 790.7 ± 1.7 kg/m3
mass density (39620 kPa, x2 = 0): 740.6 ± 2.2 kg/m3
mass density (39620 kPa, x2 = 0.09303): 743.6 ± 2.2 kg/m3
mass density (39620 kPa, x2 = 0.2009): 747.8 ± 2.1 kg/m3
mass density (39620 kPa, x2 = 0.3051): 752.1 ± 2.1 kg/m3
mass density (39620 kPa, x2 = 0.417): 757.3 ± 2.1 kg/m3
mass density (39620 kPa, x2 = 0.512): 762 ± 2 kg/m3
mass density (39620 kPa, x2 = 0.5996): 767.5 ± 2 kg/m3
mass density (39620 kPa, x2 = 0.7052): 774.5 ± 1.9 kg/m3
mass density (39620 kPa, x2 = 0.9039): 791.3 ± 1.7 kg/m3
